Data on seven compounds can be found in patent publication US20240415819A1, “MACROCYCLIC COMPOUNDS AS PROTEASOME SUBUNIT BETA TYPE-5 INHIBITORS” (Lead Discovery Center GmbH, priority 2021, published 2024).

The target of experiment [1] is T1, β5 subunit of the human constitutive proteasome (CPS) (Homo sapiens, UniProt P28074).
T1 construct: purchased Boston Biochem E-360
In words: β5 inhibition assay, human constitutive proteasome (Suc-LLVY-AMC). In kind it is biochemical. As to conditions: IC50 class, Suc-LLVY-AMC substrate. The method, then:
The enzymatic activity of the β5 subunit of the human constitutive proteasome (CPS) is analyzed. In another assay, which differs from the assay of the human constitutive proteasome only in using the human immunoproteasome (IPS) the enzymatic activity of the β5 subunit of the human immunoproteasome (IPS) is analyzed. […] Inhibition is indicated as IC50 [nM] (“-”=not measured).

Experiment [2] concerns the target T2, β5 subunit of the human immunoproteasome (IPS) (Homo sapiens, UniProt P28062).
T2 construct: purchased Boston Biochem E-370
Kind of experiment: β5 inhibition assay, human immunoproteasome (Suc-LLVY-AMC). As to conditions: IC50 class, Suc-LLVY-AMC substrate. Format: biochemical. The essentials: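 β5 activity is read as liberated AMC fluorescence (355/460 nm) after 4 h dark reaction at RT with 22.6 μM Suc-LLVY-AMC, stopped by 1 μM bortezomib. Beforehand, 1 nM human IPS and compound sat 10 min at RT in HEPES pH 7.5 buffer containing NaCl, 0.02% SDS and DTT.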

The next experiment concerns hPMBC. Kind of experiment: Chymotrypsin-like ProteasomeGlo assay in hPBMC. In kind it is cell-based. As to conditions: Homo sapiens; read-out: Pglo hPBMC. The essentials:
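IC50 derived from luminescent chymotrypsin-like proteasome activity (Suc-LLVY-Glo substrate plus luciferin detection reagent). Measured after 105 min compound exposure at 37 °C, 5% CO2. Cells were human B cells purified from buffy-coat PBMC.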

`Cc1ccc2cc1CNC(=O)[C@H](CCc1ccccc1)NC(=O)[C@@H](NC(=O)C1(C)COC1)CC(=O)N1CCCC(CCO2)C1` (stereo partly drawn) [Compound 287, 3-methyl-N-((9S,12S)-5^4-methyl-8,11,14-trioxo-9-phenethyl-4-oxa-7,10-diaza-1(3,1)-piperidina-5(1,3)-benzenacyclotetradecaphane-12-yl)oxetane-3-carboxamide]: the IC50 (in experiment [1]; in experiment [2]; in the experiment with hPMBC) was less than 100 nM in each case.
Consider `Cc1ccc2cc1CNC(=O)[C@H](CCc1ccccc1)NC(=O)[C@@H](NC(=O)C1(C)CCOCC1)CC(=O)N1CCCC(CCO2)C1` (stereo partly drawn) [Compound 288, 4-methyl-N-((9S,12S)-5^4-methyl-8,11,14-trioxo-9-phenethyl-4-oxa-7,10-diaza-1(3,1)-piperidina-5(1,3)-benzenacyclotetradecaphane-12-yl)tetrahydro-2H-pyran-4-carboxamide], for which the IC50 (in experiment [1]; in experiment [2]; in the experiment on hPMBC) was less than 100 nM each time.
With `Cc1ccc2cc1CNC(=O)[C@@H](CCc1ccccc1)NC(=O)[C@@H](NC(=O)OCc1ccccc1)CC(=O)N1CCC[C@H](CCO2)C1` [Compound 289, benzyl ((13R,9R,12S)-5^4-methyl-8,11,14-trioxo-9-phenethyl-4-oxa-7,10-diaza-1(3,1)-piperidina-5(1,3)-benzenacyclotetradecaphane-12-yl)carbamate], the results for the IC50 (in experiment [1]; in experiment [2]; with hPMBC) were 100 to 500 nM, 100 to 500 nM and 500 to 1000 nM, respectively.
On to `Cc1ccc2cc1CNC(=O)[C@@H](CCc1ccccc1)NC(=O)[C@H](NC(=O)OCc1ccccc1)CC(=O)N1CCC[C@H](CCO2)C1` [Compound 290, benzyl ((13R,9R,12R)-5^4-methyl-8,11,14-trioxo-9-phenethyl-4-oxa-7,10-diaza-1(3,1)-piperidina-5(1,3)-benzenacyclotetradecaphane-12-yl)carbamate], for which the IC50 in experiment [1] is 1000 to 5000 nM; in experiment [2], 500 to 1000 nM; in the experiment on hPMBC, more than 5000 nM.
The matching figures for `Cc1ccc2cc1CNC(=O)[C@H](CCc1ccccc1)NC(=O)[C@@H](NC(=O)C(C)(C)C#N)CC(=O)N1CCCC(CCO2)C1` (stereo partly drawn) [Compound 294, 2-cyano-2-methyl-N-((9S,12S)-54-methyl-8,11,14-trioxo-9-phenethyl-4-oxa-7,10-diaza-1(3,1)-piperidina-5(1,3)-benzenacyclotetradecaphane-12-yl)propanamide]: less than 100 nM, less than 100 nM and less than 100 nM.
The matching figures for `CC(=O)N[C@H]1CC(=O)N2CCCC(CCOc3ccc(C)c(c3)CNC(=O)C(c3cnn(CCCC(=O)O)c3)NC1=O)C2` (stereo partly drawn) [Compound 568, 4-(4-((12S)-12-acetamido-5^4-methyl-8,11,14-trioxo-4-oxa-7,10-diaza-1(3,1)-piperidina-5(1,3)-benzenacyclotetradecaphane-9-yl)-1H-pyrazol-1-yl)butanoic acid]: less than 100 nM, less than 100 nM and less than 100 nM.
With `CC(=O)N[C@H]1CC(=O)N2CCCC(CCOc3ccc(C)c(c3)CNC(=O)C(c3cnn(CCCS(=O)(=O)O)c3)NC1=O)C2` (stereo partly drawn) [Compound 571, 3-(4-((12S)-12-acetamido-5^4-methyl-8,11,14-trioxo-4-oxa-7,10-diaza-1(3,1)-piperidina-5(1,3)-benzenacyclotetradecaphane-9-yl)-1H-pyrazol-1-yl)propane-1-sulfonic acid], the IC50 (in experiment [1]; in experiment [2]; with hPMBC) was less than 100 nM in each case.
